Test results: patent publication US20250074906A1, “AZAINDOLE DERIVATIVE THAT INHIBITS H-PGDS” (SATO PHARMACEUTICAL CO., LTD., priority 2021, published 2025)

Molecular target: T1, Recombinant human H-PGDS (Homo sapiens, UniProt O60760)
T1 construct: made in house; host or cells: E. coli
Assay: H-PGDS inhibitory activity (prostaglandin D2 production measured by LC-MS/MS)
Type: biochemical
Conditions: recombinant human H-PGDS 1.0 nM expressed in E. coli; prostaglandin H2 25 μM; 15 min preincubation and 1 min reaction on ice
Procedure: The H-PGDS inhibitory activity of each Example compound was measured according to the method described in WO 2007/041634.
Recombinant human H-PGDS (final concentration: 1.0 nM) expressed in E. coli was mixed in an assay buffer containing 20 mM Tris-HCl (pH 8.0), 2 mM magnesium chloride, 2 mM reduced glutathione, and 0.5 mg/mL γ-globulin, and 150 μL of the mixture was dispensed into an 8-strip PCR tube (BM Equipment Co., Ltd). Test compounds (Example compounds) (16.5 μL) at various concentrations dissolved in DMSO were added and the mixture was preincubated for 15 minutes on ice.
Prostaglandin H2 (final concentration: 25 μM) (Cayman Chemical) was dispensed into another 8-strip PCR tube, and the solvent was dried and solidified using a vacuum concentrator (Thermo Fisher Scientific). To the dried and solidified prostaglandin H2 was added 50 μL of the assay buffer containing H-PGDS and each test compound after the preincubation, and the mixture was reacted on ice for 1 minute. 40 μL of this mixture was added to 40 μL of a stop solution (50 mM aqueous citric acid solution containing iron chloride at a final concentration of 4 mg/mL) to stop the reaction. Then, the reaction solution was deproteinized, added to a 96 square deep well plate (SHONANMARUHACHI STEC Co., Ltd.), and the prostaglandin D2 concentration in the reaction solution was measured by LC-MS/MS. ACQUITY (registered trademark) TQD (Waters) was used as a measuring instrument.
Prostaglandin D2 production activity (%) in the group with each test compound when a value obtained by subtracting the amount of production of prostaglandin D2 in the group without enzyme, which is non-specific production of prostaglandin D2, from the amount of production of prostaglandin D2 in the group without test compound (DMSO-addition group) in each 8-strip PCR tube is 100% was calculated. From the calculated activity value, the test compound concentration that inhibits prostaglandin D2 production by 50% (IC50) was determined.

T1 sequence (O60760 whole entry): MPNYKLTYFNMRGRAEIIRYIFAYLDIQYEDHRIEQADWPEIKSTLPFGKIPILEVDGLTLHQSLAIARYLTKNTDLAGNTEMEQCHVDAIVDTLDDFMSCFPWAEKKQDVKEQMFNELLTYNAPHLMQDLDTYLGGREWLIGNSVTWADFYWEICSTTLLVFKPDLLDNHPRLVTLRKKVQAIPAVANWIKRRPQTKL

Which IC50 does the source give for `O=C(NC12CCC(O)(CC1)C2)c1ccc(-c2ncc(F)c3[nH]ccc23)cc1` [Example 19, 4-(7-fluoro-1H-pyrrolo[3,2-c]pyridin-4-yl)-N-(4-hydroxybicyclo[2.2.1]heptan-1-yl)benzamide] here?
Its IC50 is 1.4 nM.

For `O=C(N[C@H]1CC[C@@H](O)CC1)c1ccc(-c2ncc(F)c3[nH]ccc23)c(F)c1` [Example 42, 3-fluoro-4-(7-fluoro-1H-pyrrolo[3,2-c]pyridin-4-yl)-N-(cis-4-hydroxycyclohexyl)benzamide], which IC50 is on record?
The IC50 was 0.92 nM.

How did the IC50 turn out when `Cc1cnc(-c2ccc(C(=O)N[C@H]3CC[C@H](OCC(C)(C)O)CC3)cc2)c2cc[nH]c12` [Example 4, N-[trans-4-(2-hydroxy-2-methylpropoxy)cyclohexyl]-4-(7-methyl-1H-pyrrolo[3,2-c]pyridin-4-yl)benzamide] was run?
The IC50 was 1.5 nM.

With `CC(C)(O)[C@H]1CC[C@H](NC(=O)c2ccc(-c3ncc(C(F)F)c4[nH]ccc34)cc2)CC1` [Example 18, 4-[7-(difluoromethyl)-1H-pyrrolo[3,2-c]pyridin-4-yl]-N-[trans-4-(2-hydroxypropan-2-yl)cyclohexyl]benzamide] as the molecule, how does the IC50 read?
The IC50 was 2.8 nM.

For `N#C[C@H]1CC[C@H](NC(=O)c2ccc(-c3ncc(F)c4[nH]ccc34)cc2)CC1` [Example 26, N-(trans-4-cyanocyclohexyl)-4-(7-fluoro-1H-pyrrolo[3,2-c]pyridin-4-yl)benzamide], which IC50 is on record?
Its IC50 is 1.3 nM.

Which IC50 does the source give for `C[C@]1(O)CC[C@H](NC(=O)c2ccc(-c3ncc(F)c4[nH]ccc34)c(F)c2)CC1` [Example 37, 3-fluoro-4-(7-fluoro-1H-pyrrolo[3,2-c]pyridin-4-yl)-N-(trans-4-hydroxy-4-methylcyclohexyl)benzamide] here?
Its IC50 is 0.95 nM.

Which IC50 does the source give for `O=C(N[C@H]1CC[C@@H](O)CC1)c1ccc(-c2ncc(Cl)c3[nH]ccc23)cc1` [Example 33, 4-(7-chloro-1H-pyrrolo[3,2-c]pyridin-4-yl)-N-(cis-4-hydroxycyclohexyl)benzamide] here?
Its IC50 is 0.77 nM.

How did the IC50 turn out when `NC(=O)C12CCC(NC(=O)c3ccc(-c4nccc5[nH]ccc45)c(F)c3)(CC1)CC2` [Example 8, 4-[3-fluoro-4-(1H-pyrrolo[3,2-c]pyridin-4-yl)benzamide]bicyclo[2.2.2]octane-1-carboxamide] was run?
Its IC50 is 0.75 nM.

`O=C(N[C@H]1CC[C@H](O)CC1)c1ccc(-c2nccc3[nH]ccc23)c(F)c1` [Example 12, 3-fluoro-N-(trans-4-hydroxycyclohexyl)-4-(1H-pyrrolo[3,2-c]pyridin-4-yl)benzamide] was tested. Which IC50 did it give?
Its IC50 is 0.88 nM.

With `NC(=O)[C@H]1CC[C@H](NC(=O)c2ccc(-c3ncc(F)c4[nH]ccc34)cc2)CC1` [Example 27, N-(trans-4-carbamoylcyclohexyl)-4-(7-fluoro-1H-pyrrolo[3,2-c]pyridin-4-yl)benzamide] as the molecule, how does the IC50 read?
Its IC50 is 2.3 nM.

With `O=C(NC12CCC(O)(CC1)CC2)c1ccc(-c2ncc(F)c3[nH]ccc23)c(F)c1` [Example 36, 3-fluoro-4-(7-fluoro-1H-pyrrolo[3,2-c]pyridin-4-yl)-N-(4-hydroxybicyclo[2.2.2]octan-1-yl)benzamide] as the molecule, how does the IC50 read?
Its IC50 is 0.71 nM.

Which IC50 does the source give for `C[C@]1(O)CC[C@H](NC(=O)c2ccc(-c3ncc(F)c4[nH]ccc34)cc2)CC1` [Example 21, 4-(7-fluoro-1H-pyrrolo[3,2-c]pyridin-4-yl)-N-(trans-4-hydroxy-4-methylcyclohexyl)benzamide] here?
Its IC50 is 1.7 nM.

For `O=C(NC12CCC(O)(CC1)CC2)c1ccc(-c2ncc(F)c3[nH]ncc23)cc1` [Example 47, 4-(7-fluoro-1H-pyrazolo[4,3-c]pyridin-4-yl)-N-(4-hydroxybicyclo[2.2.2]octan-1-yl)benzamide], which IC50 is on record?
The IC50 was 14 nM.

`CC(C)(O)CO[C@H]1CC[C@H](NC(=O)c2ccc(-c3nccc4[nH]ccc34)c(F)c2)CC1` [Example 9, 3-fluoro-N-[trans-4-(2-hydroxy-2-methylpropoxy)cyclohexyl]-4-(1H-pyrrolo[3,2-c]pyridin-4-yl)benzamide] was tested. Which IC50 did it give?
The IC50 was 1.2 nM.

How did the IC50 turn out when `O=C(NC1CCOCC1)c1ccc(-c2ncc(F)c3[nH]ccc23)cc1` [Example 24, 4-(7-fluoro-1H-pyrrolo[3,2-c]pyridin-4-yl)-N-(tetrahydropyran-4-yl)benzamide] was run?
Its IC50 is 0.86 nM.

`Cc1cnc(-c2ccc(C(=O)N[C@H]3CC[C@H](C4(O)CC4)CC3)cc2)c2cc[nH]c12` [Example 3, N-[trans-4-(1-hydroxycyclopropyl)cyclohexyl]-4-(7-methyl-1H-pyrrolo[3,2-c]pyridin-4-yl)benzamide] was tested. Which IC50 did it give?
Its IC50 is 1.9 nM.

With `CC(C)(O)[C@H]1CC[C@H](NC(=O)c2ccc(-c3ncc(F)c4[nH]ccc34)cc2)CC1` [Example 13, 4-(7-fluoro-1H-pyrrolo[3,2-c]pyridin-4-yl)-N-[trans-4-(2-hydroxypropan-2-yl)cyclohexyl]benzamide] as the molecule, how does the IC50 read?
Its IC50 is 1.4 nM.

With `C[C@]1(O)CC[C@H](NC(=O)c2ccc(-c3ncc(Cl)c4[nH]ccc34)cc2)CC1` [Example 34, 4-(7-chloro-1H-pyrrolo[3,2-c]pyridin-4-yl)-N-(trans-4-hydroxy-4-methylcyclohexyl)benzamide] as the molecule, how does the IC50 read?
The IC50 was 0.86 nM.

For `CC(C)(O)[C@H]1CC[C@H](NC(=O)c2ccc(-c3ncc(Cl)c4[nH]ncc34)cc2)CC1` [Example 48, 4-(7-chloro-1H-pyrazolo[4,3-c]pyridin-4-yl)-N-[trans-4-(2-hydroxypropan-2-yl)cyclohexyl]benzamide], which IC50 is on record?
Its IC50 is 5.9 nM.

How did the IC50 turn out when `CC(C)(O)[C@H]1CC[C@H](NC(=O)c2ccc(-c3nccc4[nH]ncc34)cc2)CC1` [Example 43, N-[trans-4-(2-hydroxypropan-2-yl)cyclohexyl]-4-(1H-pyrazolo[4,3-c]pyridin-4-yl)benzamide] was run?
The IC50 was 2.4 nM.

How did the IC50 turn out when `O=C(NC1CCS(=O)(=O)CC1)c1ccc(-c2ncc(F)c3[nH]ccc23)cc1` [Example 25, N-(1,1-dioxotetrahydrothiopyran-4-yl)-4-(7-fluoro-1H-pyrrolo[3,2-c]pyridin-4-yl)benzamide] was run?
The IC50 was 0.7 nM.

How did the IC50 turn out when `CC(C)(O)[C@H]1CC[C@H](NC(=O)c2ccc(-c3ncc(Cl)c4[nH]ccc34)cc2)CC1` [Example 14, 4-(7-chloro-1H-pyrrolo[3,2-c]pyridin-4-yl)-N-[trans-4-(2-hydroxypropan-2-yl)cyclohexyl]benzamide] was run?
Its IC50 is 1.2 nM.

For `O=C(N[C@H]1CC[C@H](O)CC1)c1ccc(-c2ncc(Cl)c3[nH]ccc23)cc1` [Example 30, 4-(7-chloro-1H-pyrrolo[3,2-c]pyridin-4-yl)-N-(trans-4-hydroxycyclohexyl)benzamide], which IC50 is on record?
Its IC50 is 0.68 nM.

Which IC50 does the source give for `C[C@]1(O)CC[C@@H](NC(=O)c2ccc(-c3ncc(F)c4[nH]ccc34)c(F)c2)CC1` [Example 40, 3-fluoro-4-(7-fluoro-1H-pyrrolo[3,2-c]pyridin-4-yl)-N-(cis-4-hydroxy-4-methylcyclohexyl)benzamide] here?
The IC50 was 1.1 nM.

`O=C(NC1CCOCC1)c1ccc(-c2ncc(Cl)c3[nH]ccc23)cc1` [Example 28, 4-(7-chloro-1H-pyrrolo[3,2-c]pyridin-4-yl)-N-(tetrahydropyran-4-yl)benzamide] was tested. Which IC50 did it give?
The IC50 was 1.7 nM.

For `O=C(NC12CCC(O)(CC1)CC2)c1ccc(-c2ncc(Cl)c3[nH]ccc23)cc1` [Example 17, 4-(7-chloro-1H-pyrrolo[3,2-c]pyridin-4-yl)-N-(4-hydroxybicyclo[2.2.2]octan-1-yl)benzamide], which IC50 is on record?
Its IC50 is 0.69 nM.

Which IC50 does the source give for `O=C(NC12CCC(O)(CC1)CC2)c1ccc(-c2ncc(F)c3[nH]ccc23)cc1` [Example 16, 4-(7-fluoro-1H-pyrrolo[3,2-c]pyridin-4-yl)-N-(4-hydroxybicyclo[2.2.2]octan-1-yl)benzamide] here?
Its IC50 is 0.99 nM.

How did the IC50 turn out when `O=C(N[C@H]1CC[C@@H](O)CC1)c1ccc(-c2ncc(F)c3[nH]ccc23)cc1` [Example 23, 4-(7-fluoro-1H-pyrrolo[3,2-c]pyridin-4-yl)-N-(cis-4-hydroxycyclohexyl)benzamide] was run?
The IC50 was 0.79 nM.

`O=C(N[C@H]1CC[C@H](C2(O)CC2)CC1)c1ccc(-c2nccc3[nH]ccc23)c(F)c1` [Example 11, 3-fluoro-N-[trans-4-(1-hydroxycyclopropyl)cyclohexyl]-4-(1H-pyrrolo[3,2-c]pyridin-4-yl)benzamide] was tested. Which IC50 did it give?
Its IC50 is 3.9 nM.

For `C[C@]1(O)CC[C@H](NC(=O)c2ccc(-c3nccc4[nH]ccc34)c(F)c2)CC1` [Example 5, 3-fluoro-N-(trans-4-hydroxy-4-methylcyclohexyl)-4-(1H-pyrrolo[3,2-c]pyridin-4-yl)benzamide], which IC50 is on record?
Its IC50 is 1 nM.

For `CC(C)(O)[C@H]1CC[C@H](NC(=O)c2ccc(-c3ncc(F)c4[nH]ccc34)c(F)c2)CC1` [Example 35, 3-fluoro-4-(7-fluoro-1H-pyrrolo[3,2-c]pyridin-4-yl)-N-[trans-4-(2-hydroxypropan-2-yl)cyclohexyl]benzamide], which IC50 is on record?
Its IC50 is 1.2 nM.

Which IC50 does the source give for `O=C(NC1CCOCC1)c1ccc(-c2ncc(F)c3[nH]ccc23)c(F)c1` [Example 38, 3-fluoro-4-(7-fluoro-1H-pyrrolo[3,2-c]pyridin-4-yl)-N-(tetrahydropyran-4-yl)benzamide] here?
The IC50 was 0.85 nM.

For `N#CC12CCC(NC(=O)c3ccc(-c4nccc5[nH]ccc45)c(F)c3)(CC1)CC2` [Example 7, N-(4-cyanobicyclo[2.2.2]octan-1-yl)-3-fluoro-4-(1H-pyrrolo[3,2-c]pyridin-4-yl)benzamide], which IC50 is on record?
Its IC50 is 1.3 nM.
